Here are results for 18 compounds from ChEMBL document CHEMBL3259738, “Discovery of substituted benzamides as follicle stimulating hormone receptor allosteric modulators” (Bioorg Med Chem Lett, 2014).

pEC50: −log10 of the molar value. ≈ marks a conversion by molar mass, not a printed value.

A short description of series [1]: Induction of estradiol production in rat primary granulosa cells after 24 hrs by ELISA relative to FSH. The format is functional.
Series [2] in a line: Clearance in rat microsomes. It is filed as ADME.
Series [3] can be described thus: Oral bioavailability in immature Sprague-Dawley rat at 0.5 mg/kg. It is filed as ADME, organism-based. Particulars: in vivo.
Series [4] concerns the target T1, Follicle-stimulating hormone receptor (Homo sapiens, UniProt P23945).
T1 sequence (P23945 whole entry): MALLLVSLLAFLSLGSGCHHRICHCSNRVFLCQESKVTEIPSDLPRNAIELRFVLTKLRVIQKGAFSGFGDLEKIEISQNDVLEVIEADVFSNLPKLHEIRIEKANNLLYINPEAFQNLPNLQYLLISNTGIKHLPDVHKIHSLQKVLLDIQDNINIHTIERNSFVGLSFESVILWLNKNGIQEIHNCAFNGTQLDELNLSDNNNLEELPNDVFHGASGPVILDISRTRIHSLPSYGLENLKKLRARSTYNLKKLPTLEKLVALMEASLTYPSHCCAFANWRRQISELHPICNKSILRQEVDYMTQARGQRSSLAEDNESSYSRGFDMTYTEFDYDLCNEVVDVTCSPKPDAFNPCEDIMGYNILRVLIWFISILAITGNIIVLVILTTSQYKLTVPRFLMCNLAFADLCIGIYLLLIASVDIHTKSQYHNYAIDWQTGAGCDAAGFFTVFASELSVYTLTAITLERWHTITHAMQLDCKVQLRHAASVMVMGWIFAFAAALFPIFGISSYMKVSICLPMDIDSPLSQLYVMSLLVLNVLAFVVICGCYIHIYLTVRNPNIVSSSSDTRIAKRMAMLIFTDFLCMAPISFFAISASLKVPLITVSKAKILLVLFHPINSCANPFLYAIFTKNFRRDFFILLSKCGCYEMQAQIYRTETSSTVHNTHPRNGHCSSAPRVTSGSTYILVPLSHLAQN
As to the kind of experiment: Positive allosteric modulation of human FSH receptor expressed in CHO cells assessed as effect on FSH-induced cAMP accumulation after 1 hr by HTRF assay. The format is functional, cell-based. (In general: Cyclic AMP is a second messenger, typically raised through Gs and lowered through Gi signalling.)

Series [5] in a line: Clearance in immature Sprague-Dawley rat at 0.2 mg/kg, iv. It is filed as ADME, organism-based. On the set-up: dose 0.2 mg/kg, route intravenous. Particulars: in vivo.
Series [6] can be described thus: Volume of distribution at steady state in immature Sprague-Dawley rat at 0.2 mg/kg, iv. It is filed as ADME, organism-based. On the set-up: dose 0.2 mg/kg, route intravenous. Particulars: in vivo, read-out: Vdss.
The nature of series [7]: Induction of estradiol production in rat primary granulosa cells after 24 hrs by ELISA. The format is functional. (In general: ELISA stands for enzyme-linked immunosorbent assay.)
The nature of series [8]: Clearance in human microsomes. The format is ADME.
Series [9] has as its target T2, Follicle-stimulating hormone receptor (Homo sapiens) (UniProt P23945).
T2 sequence (whole entry): T1 sequence (P23945 whole entry)
Nature of the series: Positive allosteric modulation of human FSH receptor expressed in CHO cells assessed as effect on FSH-induced cAMP accumulation at 12 uM after 1 hr by HTRF assay relative to FSH. It is filed as functional, cell-based.

The target in series [10] is T2, Follicle-stimulating hormone receptor (Homo sapiens). As to the kind of experiment: Positive allosteric modulation of human FSH receptor expressed in CHO cells assessed as effect on FSH-induced cAMP accumulation at 50 uM after 1 hr by HTRF assay relative to FSH. The format is functional, cell-based.
Series [11] in a line: Aqueous solubility of the compound at pH 7.4. The format is physicochemical.

The compound `Cc1ccccc1N1CCN(c2ccc(C(=O)N[C@@H]3CCC[C@@H](O)[C@H]3O)cc2NC(=O)c2coc(C3CC3)n2)CC1` displayed an Efficacy in [1] of 81%. The intrinsic metabolic clearance (microsomal CLint) (usually the rate of metabolic loss divided by the concentration) in [2] stood at 13 µL/min/mg; in [8], 72 µL/min/mg. In [3], the bioavailability (as a rule, dose-corrected exposure relative to a reference, in per cent) is 23%. Also, the results for the pEC50 in series [4] and in [7] were 7.28 and 8.30, respectively. The clearance (as a rule, a measure of how efficiently the substance is removed, as volume per time) in [5] was found to be 3.41 mL/min/kg. For the same compound, the Vd in series [6] worked out at 1.65 L/kg.

Take `Cc1ccccc1N1CCN(c2ccc(CNCCCN3CCCC3=O)cc2NC(=O)c2coc(C3CC3)n2)CC1`: the Activity in series [9] amounted to 4.5%.

Turning to `O=C(NCCCN1CCCC1=O)c1ccc(N2CCN(c3ccccn3)CC2)c(NC(=O)c2ccco2)c1`, the Activity in series [10] worked out at 20%.

Consider `Cc1ccccc1N1CCN(c2ccc(C(=O)NCCCN3C(=O)CCC3=O)cc2NC(=O)c2ccco2)CC1`, for which the intrinsic clearance (microsomal CLint) in [2] came out at 38 µL/min/mg; in [8], 33 µL/min/mg. For the same compound, in series [4], the pEC50 – broadly, the EC50 on a negative log10 scale, so that one unit is a factor of ten – is 6.74.

Consider `Cc1ccccc1N1CCN(c2ccc(C(=O)NCCCN3CCCC3=O)cc2NC(=O)c2ccncc2)CC1`, for which the Activity in series [9] was 34%.

For the compound `Cc1ccccc1N1CCN(c2ccc(C(=O)N3CCC(N4CCCC4=O)CC3)cc2NC(=O)c2ccco2)CC1`, the Activity in series [9] worked out at 40%.

As for `Cc1ccccc1N1CCN(c2ccc(C(=O)NCCCc3nn[nH]n3)cc2NC(=O)c2coc(C3CC3)n2)CC1`, the Efficacy in [1] is listed as 78%. Moreover, the results for the microsomal CLint in series [2] and in [8] were 18 µL/min/mg and 20 µL/min/mg, respectively. The solubility (as a rule, the concentration that dissolves in the medium under given conditions) in series [11] was determined as 160 µM (≈ 88.9 µg/mL). In [3], this compound gave a bioavailability of 21%. In addition, the pEC50 was 7.05 in series [4] and 6.77 in [7]. In [5], this compound gave a clearance of 13.2 mL/min/kg. For the same compound, the Vd in series [6] came to 5.46 L/kg.

As for `Cc1ccccc1C1CCN(c2ccc(C(=O)NCCCN3CCCC3=O)cc2NC(=O)c2ccco2)CC1`, the Activity in [10] was 1%.

In the case of `COc1ccccc1N1CCN(c2ccc(C(=O)NCCCN3CCCC3=O)cc2NC(=O)c2ccco2)CC1`, the Activity in series [10] amounted to 20%.

For `Cc1ccccc1N1CCN(c2ccc(C(=O)NCCCN3CCCC3=O)cc2NC(=O)c2ccco2)CC1`, the values for the microsomal CLint in series [2] and in series [8] were 233 µL/min/mg and 312 µL/min/mg, respectively.

Take `Cc1ccc(N2CCN(c3ccc(C(=O)NCCCN4CCCC4=O)cc3NC(=O)c3coc(C4CC4)n3)CC2)cc1`: in [10], the Activity is 13%.

As to `Cc1ccccc1N1CCN(c2ccc(C(=O)NCCCN3CCCC3=O)cc2NS(=O)(=O)c2ccco2)CC1`, the Activity in series [9] is 10%.

Take `Cc1ccccc1N1CCN(c2ccc(C(=O)NCCCN3CCOC3=O)cc2NC(=O)c2ccco2)CC1`: the figures for the intrinsic metabolic clearance (microsomal CLint) in [2] and in series [8] were 25 µL/min/mg and 59 µL/min/mg, respectively. Besides, in series [4], the negative-log EC50 (pEC50) was 7.55.

For `Cc1ccccc1N1CCN(c2ccc(C(=O)NCCCN3CCCC3=O)cc2NC(=O)c2coc(C3CC3)n2)CC1C` (configuration not stated), in series [10], the Activity was 36%.

Consider `Cc1ccccc1N1CCN(c2ccc(C(=O)NCCCN3CCCC3=O)cc2NC(=O)c2cccnc2)CC1`, for which the Activity in series [9] is 37%.

In the case of `Cc1ccccc1N1CCN(c2ccc(C(=O)NCc3cccc(C(N)=O)c3)cc2NC(=O)c2ccco2)CC1`, the intrinsic metabolic clearance (microsomal CLint) is 31 µL/min/mg in series [2] and 54 µL/min/mg in series [8]. The pEC50 in [4] is 7.34.

Take `O=C(NCCCN1CCCC1=O)c1ccc(N2CCNCC2)c(NC(=O)c2ccco2)c1`: the Activity in [10] came out at 1%.

In the case of `Cc1ccccc1N1CCN(c2ccc(C(=O)NCCCN3CCCC3=O)cc2NC(=O)c2coc(C3CC3)n2)CC1`, the microsomal CLint in [2] was 225 µL/min/mg; in series [8] it was 260 µL/min/mg. Besides, the pEC50 in series [4] is 7.00.
